Columns and labels:
PI3Kα-WT MEFs = assay: Cell number by crystal violet staining in MEFs; assay type: cell-based, mouse; conditions: 72 h
Method: MEFs were seeded at 5000 cells per well in 96-well plates in DMEM supplemented with 10% FBS and 1% P/S, and allowed to attach overnight. The next day, cells were serum-starved for 5 h prior to compound addition in fresh serum-free DMEM. After different time points, cells were rapidly washed with distilled H2O before fixed and stained in a solution of 0.5% crystal violet (Sigma-Aldrich cat #C0775) in 20% methanol (v:v) as described (Feoktistova, M. et al. Cold Spring Harb Protoc 2016, pdb prot087379 (2016). Briefly, after 20 min incubation at room temperature on a rocking platform, fixed and stained cells were washed 3 times with distilled H2O and plates air-dried overnight. 200 μl methanol was next added to each well and the plates were incubated at room temperature for 20 min on a bench rocker, followed by measurement of optical density at 570 with a plate reader.

[1] = molecular target: T1, mTORC1 (mTOR/RAPTOR/LST8 complex) (Homo sapiens, UniProt P42345); assay: mTORC1 kinase assay (Phos-tag gel); assay type: biochemical; conditions: 200 μM 1938
T1 construct: made in house
Method: 133 protein kinases and 7 lipid kinases were counterscreened, with […] used at 1 μM, using the Adapta, Lantha and Z-LYTE assays (SelectScreen Kinase Profiling Service; Thermofisher—experimental details of these assays can be found here: https://www.thermofisher.com/uk/en/home/industrial/pharma-biopharma/drug-discovery-development/target-and-lead-identification-and-validation/kinasebiology/kinase-activity-assays.html. The tree representation in KinMap generated courtesy of Cell Signaling Technology, Inc. (www.cellsignal.com). mTORC1 (mTOR/RAPTOR/LST8) protein complex and ATM kinase and substrates were produced as previously described (Anandapadamanaban, M. et al. Science (New York, NY 366, 203-210 (2019); Baretic, D. et al. Sci Adv 3, e1700933 (2017). Screening of 1938 was conducted using SuperSep Phos-Tag 50 μmol/l 100×100×6.6 mm 17-well (192-18001/199-18011) gels. For ATM assays, 100 nM ATM was incubated for 30 min at 30° C. with 5 μM GST-p53 and 1 mM ATP, in the absence or presence of 200 μM 1938 in ATM Kinase Buffer (50 mM HEPES pH 7.5, 100 mM NaCl, 10% glycerol, 2 mM […], 5 mM MgCl2). […] Gels were then stained using InstantBlue™ Coomassie stain, and then quantified using BioRad Image Lab Software. […]

N345K mutant of p110α = molecular target: T2, N345K mutant of p110α (Homo sapiens, UniProt P42336, N345K); assay: ADP-Glo kinase assay, oncogenic mutant N345K; assay type: biochemical; conditions: compared with pY
T2 construct: Full-length p110α was expressed in a complex with full-length p85α (for biochemistry and HDX-MS); 6xHis followed by TEV protease site (N); made in house; host or cells: Spodoptera frugiperda Sf9 (plasmid OP661)
T2 sequence (P42336 whole entry N345K): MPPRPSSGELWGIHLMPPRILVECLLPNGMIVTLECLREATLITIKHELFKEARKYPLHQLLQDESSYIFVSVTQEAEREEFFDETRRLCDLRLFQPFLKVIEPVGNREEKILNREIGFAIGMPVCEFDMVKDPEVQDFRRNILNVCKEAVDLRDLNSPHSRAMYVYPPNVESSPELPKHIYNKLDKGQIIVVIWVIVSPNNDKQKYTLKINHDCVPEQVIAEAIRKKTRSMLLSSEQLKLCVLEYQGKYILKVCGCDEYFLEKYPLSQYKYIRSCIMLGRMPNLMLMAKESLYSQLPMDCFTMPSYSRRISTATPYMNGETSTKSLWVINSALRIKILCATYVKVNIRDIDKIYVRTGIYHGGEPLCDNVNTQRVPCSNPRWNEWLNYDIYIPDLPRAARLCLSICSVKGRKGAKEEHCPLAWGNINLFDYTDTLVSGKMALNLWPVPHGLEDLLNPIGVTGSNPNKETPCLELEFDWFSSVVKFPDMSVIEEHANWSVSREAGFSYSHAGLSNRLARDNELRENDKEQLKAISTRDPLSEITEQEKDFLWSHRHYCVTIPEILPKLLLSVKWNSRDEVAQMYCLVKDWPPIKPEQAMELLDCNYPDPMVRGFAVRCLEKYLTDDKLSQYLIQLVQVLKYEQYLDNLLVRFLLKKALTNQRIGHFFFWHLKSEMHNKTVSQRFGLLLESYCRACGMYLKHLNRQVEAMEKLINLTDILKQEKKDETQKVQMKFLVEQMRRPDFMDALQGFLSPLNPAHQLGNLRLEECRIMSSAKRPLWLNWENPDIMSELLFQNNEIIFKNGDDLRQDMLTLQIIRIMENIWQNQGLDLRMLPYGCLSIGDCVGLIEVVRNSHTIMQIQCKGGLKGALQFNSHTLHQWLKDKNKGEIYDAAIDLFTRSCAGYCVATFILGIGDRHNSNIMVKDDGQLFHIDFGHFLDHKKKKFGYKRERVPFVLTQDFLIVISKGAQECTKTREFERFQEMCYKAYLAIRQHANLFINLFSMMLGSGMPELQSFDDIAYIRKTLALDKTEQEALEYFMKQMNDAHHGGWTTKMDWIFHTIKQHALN
T2 sequence (P27986 whole entry partner): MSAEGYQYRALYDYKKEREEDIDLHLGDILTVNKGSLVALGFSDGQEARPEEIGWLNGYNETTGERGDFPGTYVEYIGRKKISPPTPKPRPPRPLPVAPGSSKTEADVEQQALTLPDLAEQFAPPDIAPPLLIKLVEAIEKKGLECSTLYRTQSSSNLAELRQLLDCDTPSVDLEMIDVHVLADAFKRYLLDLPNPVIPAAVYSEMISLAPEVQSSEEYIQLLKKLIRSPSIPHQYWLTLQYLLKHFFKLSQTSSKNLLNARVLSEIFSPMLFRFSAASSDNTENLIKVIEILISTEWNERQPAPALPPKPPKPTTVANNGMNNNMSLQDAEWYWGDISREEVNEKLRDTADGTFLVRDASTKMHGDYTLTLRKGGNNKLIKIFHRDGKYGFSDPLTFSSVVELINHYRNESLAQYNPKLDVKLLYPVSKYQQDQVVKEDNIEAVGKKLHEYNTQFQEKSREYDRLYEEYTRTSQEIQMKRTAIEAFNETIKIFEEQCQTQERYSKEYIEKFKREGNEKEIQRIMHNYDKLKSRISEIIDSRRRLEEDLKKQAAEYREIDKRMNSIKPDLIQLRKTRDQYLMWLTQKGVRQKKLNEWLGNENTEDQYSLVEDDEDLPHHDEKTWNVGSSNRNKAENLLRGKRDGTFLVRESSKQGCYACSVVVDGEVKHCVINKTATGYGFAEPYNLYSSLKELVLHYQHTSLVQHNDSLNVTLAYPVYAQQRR
Method: Co-stimulation of 1938 with pY led to an additive activatory effect for G106V, but not for the N345K and E545K mutants (FIG. 1f/FIG. 22f).
Kinase reactions were performed with ADP-Glo kinase assay kit (Promega Corporation). The enzyme, substrate and compounds were diluted in reaction buffer (20 mM HEPES, 50 mM NaCl, 50 mM KCl, 3 mM MgCl2, 1 mM EGTA, 1 mM TCEP, pH 7.4). Final concentrations of PI3Kα and PI3Kδ used were 25 nM and 50 nM for PI3Kβ. Liposomes (5% brain PI(4,5)P2, 20% brain phosphatidylserine, 45% brain phosphatidylethanolamine, 15% brain phosphatidylcholine, 10% cholesterol, 5% sphingomyelin (Avanti Polar Lipids)) were used at a final concentration of 1 mg/ml. The pY sequence is ESDGG(pY)[…](pY)[…].
For characterisation of the effects of 1938 on in vitro PI3K enzymology, all reactions were performed at room temperature with 384 white-polystyrene plates (Corning #3574). The final DMSO concentration in the assay was between 0.5%-1.8%. The reaction mixture contained 2 μl PI3K enzyme, 2 μl compound and/or pY and 2 μl of liposome substrate mixed with ATP. ATP was used at a final concentration of 200 μM, unless otherwise stated. The enzyme and compounds were pre-incubated for 10 min prior to addition of substrate. […] For enzyme kinetic calculations, data was expressed as velocity (pmol of ADP generated/sec). […]

- activity of mTORC1 [1]: did not affect
SMILES: CCN1CCN(c2ccc(Nc3cc(Nc4cccc5c4N(C(C)=O)CC5)ccn3)cc2)CC1 [Example 1938]
- cell number (crystal violet staining) (PI3Kα-WT MEFs): an increase in cell number
- activation of N345K mutant (N345K mutant of p110α): levels comparable with stimulation with pY

— US20250263404A1, “AMINOPYRIDINES AS ACTIVATORS OF PI3 KINASE” (UCL Business Ltd, priority 2021, published 2025)
